{"source": "ChEMBL document CHEMBL1130605", "about": "“Conformationally restricted carbamate inhibitors of horse serum butyrylcholinesterase” (Bioorg Med Chem Lett, 1998)", "key": {"[1]": {"biological_target": "Butyrylcholinesterase (Equus caballus) (UniProt Q9N1N9)"}, "Butyrylcholinesterase [2]": {"biological_target": "T1, Butyrylcholinesterase (Equus caballus, UniProt Q9N1N9)", "test": "Tested for kinetic data for the horse serum Butyrylcholinesterase-Catalyzed Hydrolysis of Butyrylthiocholine; 10e-3/M. sec"}, "Butyrylcholinesterase [3]": {"biological_target": "T1, Butyrylcholinesterase", "test": "Compound was evaluated for irreversible inhibition of Horse serum Butyrylcholinesterase"}, "Butyrylcholinesterase [4]": {"biological_target": "T1, Butyrylcholinesterase", "test": "Compound was evaluated for its inhibitory concentration against Horse serum Butyrylcholinesterase"}}, "note": "pIC50, pKi: −log10 of the molar value."}
{"smiles": "CCCCNC(=O)OC1C2CC3CC(C2)CC1C3", "note": "(centres undefined)", "values": [{"measurement": "k2", "setting": "[1]", "value": "1.4 10e-3 s-1"}, {"measurement": "Ki", "setting": "Butyrylcholinesterase [2]", "value": "1.8 10e3* M-1 s-1"}, {"measurement": "pKi", "setting": "Butyrylcholinesterase [3]", "value": 6.10}]}
{"smiles": "CCCCNC(=O)OC12CC3CC(CC(C3)C1)C2", "values": [{"measurement": "k2", "setting": "[1]", "value": "1.5 10e-3 s-1"}, {"measurement": "Ki", "setting": "Butyrylcholinesterase [2]", "value": "1.9 10e3* M-1 s-1"}, {"measurement": "pKi", "setting": "Butyrylcholinesterase [3]", "value": 6.10}]}
{"smiles": "CCCCNC(=O)OC1C[C@H]2CCC1C2", "note": "(stereo in doubt; 1) [listing 1 of 2 here]", "values": [{"measurement": "Ki", "setting": "Butyrylcholinesterase [2]", "value": "110 10e3* M-1 s-1"}, {"measurement": "pKi", "setting": "Butyrylcholinesterase [3]", "value": 7.70}]}
{"smiles": "CCCCNC(=O)OC1C[C@H]2CCC1C2", "note": "(stereo in doubt; 1) [listing 2 of 2 here]", "values": [{"measurement": "k2", "setting": "[1]", "value": "2.2 10e-3 s-1"}]}
{"smiles": "CCCCNC(=O)OC1C[C@H]2CCC1C2", "note": "(stereo in doubt; 2) [listing 1 of 2 here]", "values": [{"measurement": "Ki", "setting": "Butyrylcholinesterase [2]", "value": "2.2 10e3* M-1 s-1"}, {"measurement": "pKi", "setting": "Butyrylcholinesterase [3]", "value": 6.38}]}
{"smiles": "CCCCNC(=O)OC1C[C@H]2CCC1C2", "note": "(stereo in doubt; 2) [listing 2 of 2 here]", "values": [{"measurement": "k2", "setting": "[1]", "value": "0.92 10e-3 s-1"}]}
{"smiles": "CC[N+](C)(C)c1cccc(O)c1", "note": "[EDROPHONIUM BROMIDE]", "values": [{"measurement": "pKi", "setting": "Butyrylcholinesterase [3]", "value": 3.47}]}
{"smiles": "CNC(=O)Oc1ccc2c(c1)[C@]1(C)CCN(C)[C@@H]1N2C", "note": "[PHYSOSTIGMINE]", "values": [{"measurement": "pIC50", "setting": "Butyrylcholinesterase [4]", "value": 7.80}]}
